In assay [1] the test system is penile corpus cavernosum smooth muscles. Description: Relaxation of phenylephrine-contracted penile corpus cavernosum smooth muscle sections in organ bath. Details: species or system New Zealand white rabbit. The settings on record: for Relaxation (%): conc. 10^−4 M, section contracted with 10^−4 M phenylephrine. The source says: A New Zealand white rabbit (2.5 to 3.0 kg) was anesthetized and the overall penis was then dissected from the rabbit. The penile corpus cavernosum smooth muscles were separated from the tunica albuginea in a low-temperature Tyrode's solution aerated with a 95% O2-5% CO2 gas mixture, while observing with a dissection microscope, to prepare a penis section. The penis section was fixed in an organ bath (10 cc) containing a Tyrode's solution. At this time, the one end of the penis section was fixed on the bottom of the organ bath, and a variation in isometric tension of the penile corpus cavernosum smooth muscles was then measured with a force displacement transducer at the other end thereof. After reaching an equilibrium state, the penile section was contracted by treatment of 10^−4 M phenylephrine.
According to the drug used to treat the penile section, the experimental groups used herein were divided into six groups, i.e., i) a group with administration of SNP as a NO donor, ii) a group with administration of Zaprinast as an inhibitor against PDE-5, an enzyme that mediates hydrolysis of c-GMP, a group with administration of acetylcholine that acts on the nervous system, iv) a group with administration of metformin, one of conventional AMPK activators, v) a group with administration of AICAR (5-aminoimidazole-4-carboxamide-1-beta-D-ribofuranoside), and vi) a group with administration of the compound 1 according to the present invention. These groups were compared with one another, in view of relaxation (%) of the penile corpus cavernosum.

The test system of a further assay is diabetes-induced rats. Description: Internal pressure of penile corpus cavernosum after electrostimulation in STZ diabetes-induced rats. Type of assay: in vivo, Sprague-Dawley white rats. Particulars: oral for 5 weeks, AICAR 500 mg/kg, compound 1 250 mg/kg, FIG. 7. The source says:
In order to confirm in vivo whether penile erection of a diabetes-induced rat has an influence on the internal pressure of the penile corpus cavernosum, 23 Sprague-Dawley white rats (about 300 g) are divided into a normal control group (Group I, n=6), a diabetes-induced control group (Group II, n=4), a group with administration of AICAR following the diabetes-induction (Group III, n=6), and a group with administration of the compound 1 (Group IV, n=7).
STZ (streptozotocin) was used to induce diabetes, and the AICAR and the compound 1 were orally administered in dosages of 500 mg/kg and 250 mg/kg, respectively, for 5 weeks. Each of the experimental groups was systemically anesthetized, intubated into one-side of the carotid in order to measure blood pressure, a electrostimulation-purpose catheter was set in the penile corpus cavernosum nerves in the cavum pelvis, and the internal pressure of the penile corpus cavernosum was measured. Electrostimulation was applied to the group for one minute (frequency: 10 Hz, delay: 4 ms, duration: 5 ms, volt: 3V). An increase in internal pressure of the groups was measured, and the groups were compared with one another in view of the increase in internal pressure.

In assay [2] the test system is penile corpus cavernosum smooth muscles. Description: Compound 1-induced relaxation after endothelium removal (CHAPS) and HO-2 inactivation (ZnPP). On the set-up: species or system New Zealand white rabbits. The source says: To ascertain the pharmacological mechanism the compound 1 acts on the relaxation of the penile corpus cavernosum smooth muscles in the New Zealand white rabbits, the smooth muscle sections were relaxed by the treatment of the compound 1 and endothelial cells were then removed from the smooth muscle sections using 10^−4 M of CHAPS (3-[(3-cholamidopropyl) dimethylammonio]-1-propanesulfonate, 0.3% in buffer solution; Sigma) as a lysis buffer. Subsequently, as another neurotransmitter, zinc-protoporphyrin-IX (ZnPP) was administrated thereto, which inactivates heme oxygenase-2 (HO-2) that produces carbon monoxide (CO) that is in vivo produced by blood and acts as a vasodilator.

Assay [3] concerns endothelial nitric oxide synthase (eNOS). Description: Phosphorylation of eNOS in HUVEC cells (anti-pS1177 eNOS). In kind it is cell-based. Particulars: compound 1 10 uM, FIG. 3. Here is the method:
In order to ascertain whether the compound 1 acting as an AMPK activator is implicated in the production of NO, phosphorylation to promote the activity of endothelial nitric oxide synthase (eNOS) was measured. So as to confirm the phosphorylation of eNOS through the compound 1, HUVEC cells were seeded on a 60 mm plate at 1×10^5 in an EBM2/5% FBS medium and cultured for 24 hours. The medium was replaced by a serum-free EBM2 medium and the treatment with the compound 1 (10 uM) was performed for a predetermined period. An anti-pS1177 eNOS was used to measure the phosphorylated eNOS.

Assay [4] relates to penile corpus cavernosum smooth muscles. Kind of assay: Compound 1-induced relaxation upon blocking of the NO pathway (L-NAME, methylene blue). On the set-up: species or system New Zealand white rabbit. Particulars: FIG. 4. The source says: To confirm the effects of the compound 1 on relaxation of the penile corpus cavernosum smooth muscles upon blocking of a NO pathway, the penile corpus cavernosum smooth muscle sections were contracted by the treatment of phenylephrine, relaxed by the treatment of the compound 1, and then sequentially treated with methylene blue as an inhibitor against guanylate cyclase that helps production of c-GMP and with L-NAME (L-nitroarginine methyl ester) that inhibits production of NO via inhibitory activity against eNOS.

Assay [5] addresses Phosphodiesterase type 5 (PDE 5) (Homo sapiens, UniProt O76074). The settings on record: cited from earlier work.

Regarding `NC(=O)c1ncn([C@@H]2O[C@H](CO)[C@@H](O)[C@H]2O)c1N` [AICAR, 5-aminoimidazole-4-carboxamide-1-beta-D-ribofuranoside, reference compound], the “Relaxation (%)” value in assay [1] is reported as 10%. Further, the “average of the highest internal pressure increase of the penile corpus cavernosum after electrostimulation” value in the assay with diabetes-induced rats amounted to 4.3±1.0 mmHg.
For the molecule `CC(=O)OCC[N+](C)(C)C` [Acetylcholine, acetylcholine], in assay [1], the “Relaxation (%)” value is recorded as 21%.
For the molecule `CC1(C)CCC2=C(O1)c1ccccc1C(=O)C2=O` [Compound 1, β-lapachone], the “Relaxation (%)” value in assay [1] is listed as 92%. In addition, the “relaxation effects of penile corpus cavernosum smooth muscles (FIG. 2)” value in assay [1] (concentration range of 10^−9 to 10^−7 M) was “about double that of the SNP-administration group”. For the same molecule, the “average of the highest internal pressure increase of the penile corpus cavernosum after electrostimulation” value with diabetes-induced rats turned out to be 9.7±5.1 mmHg. Besides, the “relaxation of the CHAPS-administration group (no Znpp) relative to relaxation of the compound 1-administration group” value in assay [2] (10^−4 M CHAPS, endothelial cells removed) is listed as “about 45%”. Moreover, in assay [2] (CHAPS plus zinc-protoporphyrin-IX (ZnPP), FIGS. 5 and 6), the “relaxation of the ZnPP-administration group” value is listed as “almost completely inhibited”. In addition, the “phosphorylation of eNOS (p-eNOS) at 2 hours” value in assay [3] (2 hours) was “not observed”. Moreover, in assay [3], the “time at which phosphorylation of eNOS (p-eNOS) is maximized” value is 30 min. The “relaxation caused by the compound 1 after L-NAME and methylene blue” value in assay [4] (10^−3 M of L-NAME and 10^−3 M of methylene blue) is reported as “partially inhibited”. Further, in assay [4] (methylene blue 10^−4 M), the “inhibition of relaxation by methylene blue compared to the L-NAME-treatment group” value is reported as “more greatly inhibited”.
For the molecule `CN(C)C(=N)N=C(N)N` [Metformin, metformin], in assay [1], the “Relaxation (%)” value was 0.1%.
Turning to `CCCc1nn(C)c2c(=O)[nH]c(-c3cc(S(=O)(=O)N4CCN(C)CC4)ccc3OCC)nc12` [Viagra], the “selectivity of PDE 5 inhibition” value in assay [5] is ≥ 4,000 folds.
For the molecule `CCCOc1ccccc1-c1nc2nn[nH]c2c(=O)[nH]1` [Zaprinast], the “Relaxation (%)” value in assay [1] came to 36%.

The values above are taken from patent publication US20120114714A1, “METHOD FOR THE TREATMENT AND PREVENTION OF ERECTILE DYSFUNCTION” (priority 2006, published 2012).
